The source of these data is patent US11439707B2, “Hypocrellin derivative substituted both in a peri-position and in 2-position by amino, preparation method, and application thereof” (priority 2017, dated 2022).

The nature of series [1]: singlet oxygen efficiency test, reference rose bengal. Format: physicochemical.
The nature of series [2]: absorption spectrum (maximum absorption wavelength, molar extinction coefficient). The class given is physicochemical.

In series [1], `COc1c2c3c4c(c(NC5CCCCC5C(=O)O)c(=O)c5c(NC6CCCCC6C(=O)O)cc(OC)c(c6c(OC)cc(O)c(c1=O)c63)c54)C=C(C)C2C(C)=O` (stereo not drawn) [HB-16c] came in with a singlet oxygen yield of 28%. Besides, in series [2], the maximum absorption wavelength was determined as 628 nm and the molar extinction coefficient is given as 28,000 M^−1cm^−1.
Take `COCCOCCOCCOCCOCCOCCOC(=O)C1CCCCC1Nc1c2c3c4c(c(OC)c(=O)c5c(NC6CCCCC6C(=O)OCCOCCOCCOCCOCCOCCOC)cc(OC)c(c6c(OC)cc(O)c(c1=O)c63)c54)C(C(C)=O)C(C)=C2` (stereo not drawn) [HB-16d-PEG6]: the singlet oxygen yield in series [1] worked out at 33%. For the same molecule, in series [2], the maximum absorption wavelength worked out at 628 nm and the molar extinction coefficient is given as 32,000 M^−1cm^−1.
Molecule `COc1c2c3c4c(c(NC5CCCCC5C(=O)O)c(=O)c5c(O)cc(OC)c(c6c(OC)cc(NC7CCCCC7C(=O)O)c(c1=O)c63)c54)C=C(C)C2C(C)=O` (stereo not drawn) [HB-16d] came in with a singlet oxygen yield in series [1] of 26%. Further, in series [2], the maximum absorption wavelength is given as 625 nm and the molar extinction coefficient is 26,500 M^−1cm^−1.
On to `COCCOCCC(=O)OC1CCC(Nc2c(NC3CCC(OC(=O)CCOCCOC)CC3)c3c(=O)cc(OC)c4c5c(OC)cc(=O)c6c(O)c(OC)c7c(c(c2C=C(C)C7C(C)=O)c34)c65)CC1` (stereo not drawn) [HB-17a-PEG1], for which the singlet oxygen yield in series [1] is given as 30%. For the same molecule, in series [2], the maximum absorption wavelength is given as 622 nm and the molar extinction coefficient was 30,500 M^−1cm^−1.
`COc1c(O)c2c(=O)cc(OC)c3c4c(OC)cc(=O)c5c(NC6CCC(O)CC6)c(NC6CCC(O)CC6)c6c(c(c1C(C(C)=O)C(C)=C6)c23)c54` (stereo not drawn) [HB-17a] gave a singlet oxygen yield in series [1] of 22%. In series [2], the maximum absorption wavelength is on record as 617 nm and the molar extinction coefficient is on record as 25,000 M^−1cm^−1.
Turning to `COc1c(NC2CCC(O)CC2)c2c(=O)cc(OC)c3c4c(OC)cc(=O)c5c(O)c(NC6CCC(O)CC6)c6c(c(c1C(C(C)=O)C(C)=C6)c23)c54` (stereo not drawn) [HB-17b], the singlet oxygen yield in series [1] worked out at 20%. Besides, in series [2], the maximum absorption wavelength is 620 nm and the molar extinction coefficient is 25,500 M^−1cm^−1.
In series [1], `COCCOCCOCCOCCOCCOCCOCCOCCOCCOCCOCCOCCOCCC(=O)OC1CCC(Nc2c3c4c5c(c(OC)c(=O)c6c(O)cc(OC)c(c7c(OC)cc(NC8CCC(OC(=O)CCOCCOCCOCCOCCOCCOCCOCCOCCOCCOCCOCCOCCOC)CC8)c(c2=O)c74)c65)C(C(C)=O)C(C)=C3)CC1` (stereo not drawn) [HB-17c-PEG12] came in with a singlet oxygen yield of 38%. Further, in series [2], the maximum absorption wavelength was found to be 632 nm and the molar extinction coefficient is 33,500 M^−1cm^−1.
As for `COc1c2c3c4c(c(NC5CCC(O)CC5)c(=O)c5c(NC6CCC(O)CC6)cc(OC)c(c6c(OC)cc(O)c(c1=O)c63)c54)C=C(C)C2C(C)=O` (stereo not drawn) [HB-17c], the singlet oxygen yield in series [1] was found to be 23%. For the same molecule, in series [2], the maximum absorption wavelength was 622 nm and the molar extinction coefficient is listed as 26,000 M^−1cm^−1.
In series [1], `COc1c2c3c4c(c(NC5CCC(O)CC5)c(=O)c5c(O)cc(OC)c(c6c(OC)cc(NC7CCC(O)CC7)c(c1=O)c63)c54)C=C(C)C2C(C)=O` (stereo not drawn) [HB-17d] gave a singlet oxygen yield of 22%. In series [2], the maximum absorption wavelength came to 624 nm and the molar extinction coefficient is on record as 25,000 M^−1cm^−1.
With `COc1c(O)c2c(=O)cc(OC)c3c4c(OC)cc(=O)c5c(NCCC6CCC(O)CC6)c(NCCC6CCC(O)CC6)c6c(c(c1C(C(C)=O)C(C)=C6)c23)c54` (stereo not drawn) [HB-18a], in series [1], the singlet oxygen yield was 20%. In series [2], the maximum absorption wavelength stood at 614 nm and the molar extinction coefficient is 24,000 M^−1cm^−1.
For `COc1c(NCCC2CCC(O)CC2)c2c(=O)cc(OC)c3c4c(OC)cc(=O)c5c(O)c(NCCC6CCC(O)CC6)c6c(c(c1C(C(C)=O)C(C)=C6)c23)c54` (stereo not drawn) [HB-18b], the singlet oxygen yield in series [1] worked out at 21%. Moreover, in series [2], the maximum absorption wavelength is 621 nm and the molar extinction coefficient was 24,500 M^−1cm^−1.
For `COc1c2c3c4c(c(NCCC5CCC(O)CC5)c(=O)c5c(NCCC6CCC(O)CC6)cc(OC)c(c6c(OC)cc(O)c(c1=O)c63)c54)C=C(C)C2C(C)=O` (stereo not drawn) [HB-18c], in that order: 23%, 624 nm and 23,500 M^−1cm^−1.
In the case of `COCCOC(=O)C1CCC(Nc2c(NC3CCC(C(=O)OCCOC)C3)c3c(=O)cc(OC)c4c5c(OC)cc(=O)c6c(O)c(OC)c7c(c(c2C=C(C)C7C(C)=O)c34)c65)C1` (stereo not drawn) [HB-19a-PEG1], the singlet oxygen yield in series [1] is 32%. For the same molecule, in series [2], the maximum absorption wavelength amounted to 624 nm and the molar extinction coefficient was 30,500 M^−1cm^−1.
For `COc1c(O)c2c(=O)cc(OC)c3c4c(OC)cc(=O)c5c(NC6CCC(C(=O)O)C6)c(NC6CCC(C(=O)O)C6)c6c(c(c1C(C(C)=O)C(C)=C6)c23)c54` (stereo not drawn) [HB-19a], the singlet oxygen yield in series [1] stood at 21%. In series [2], the maximum absorption wavelength turned out to be 621 nm and the molar extinction coefficient is recorded as 25,500 M^−1cm^−1.
Taken in the same sequence, the figures for `COc1c(NC2CCC(C(=O)O)C2)c2c(=O)cc(OC)c3c4c(OC)cc(=O)c5c(O)c(NC6CCC(C(=O)O)C6)c6c(c(c1C(C(C)=O)C(C)=C6)c23)c54` (stereo not drawn) [HB-19b] were 22%, 620 nm and 25,000 M^−1cm^−1.
Taken in the same sequence, the figures for `COCCOCCOCCOCCOCCOCCOCCOCCOCCOCCOCCOCCOC(=O)C1CCC(Nc2c3c4c5c(c(OC)c(=O)c6c(O)cc(OC)c(c7c(OC)cc(NC8CCC(C(=O)OCCOCCOCCOCCOCCOCCOCCOCCOCCOCCOCCOCCOC)C8)c(c2=O)c74)c65)C(C(C)=O)C(C)=C3)C1` (stereo not drawn) [HB-19c-PEG12] were 38%, 636 nm and 33,500 M^−1cm^−1.
For `COc1c2c3c4c(c(NC5CCC(C(=O)O)C5)c(=O)c5c(NC6CCC(C(=O)O)C6)cc(OC)c(c6c(OC)cc(O)c(c1=O)c63)c54)C=C(C)C2C(C)=O` (stereo not drawn) [HB-19c], in that order: 24%, 622 nm and 25,500 M^−1cm^−1.
Take `COCCOCCOCCOCCOCCOCCOC(=O)C1CCC(Nc2c3c4c5c(c(OC)c(=O)c6c(NC7CCC(C(=O)OCCOCCOCCOCCOCCOCCOC)C7)cc(OC)c(c7c(OC)cc(O)c(c2=O)c74)c65)C(C(C)=O)C(C)=C3)C1` (stereo not drawn) [HB-19d-PEG6]: the singlet oxygen yield in series [1] is 32%. Further, in series [2], the maximum absorption wavelength is reported as 636 nm and the molar extinction coefficient is listed as 31,000 M^−1cm^−1.
For the molecule `COc1c2c3c4c(c(NC5CCC(C(=O)O)C5)c(=O)c5c(O)cc(OC)c(c6c(OC)cc(NC7CCC(C(=O)O)C7)c(c1=O)c63)c54)C=C(C)C2C(C)=O` (stereo not drawn) [HB-19d], the singlet oxygen yield in series [1] was 20%. Also, in series [2], the maximum absorption wavelength worked out at 625 nm and the molar extinction coefficient is given as 24,000 M^−1cm^−1.
As for `COCCOCCC(=O)OC1CCC(Nc2c(NC3CCC(OC(=O)CCOCCOC)C3)c3c(=O)cc(OC)c4c5c(OC)cc(=O)c6c(O)c(OC)c7c(c(c2C=C(C)C7C(C)=O)c34)c65)C1` (stereo not drawn) [HB-20a-PEG1], the singlet oxygen yield in series [1] is listed as 30%. Also, in series [2], the maximum absorption wavelength was 624 nm and the molar extinction coefficient is on record as 31,000 M^−1cm^−1.
For the molecule `COc1c(O)c2c(=O)cc(OC)c3c4c(OC)cc(=O)c5c(NC6CCC(O)C6)c(NC6CCC(O)C6)c6c(c(c1C(C(C)=O)C(C)=C6)c23)c54` (stereo not drawn) [HB-20a], the singlet oxygen yield in series [1] came out at 20%. Moreover, in series [2], the maximum absorption wavelength turned out to be 624 nm and the molar extinction coefficient is recorded as 24,500 M^−1cm^−1.
`COCCOCCOCCOCCOCCOCCOCCC(=O)OC1CCC(Nc2c(O)c3c(=O)cc(OC)c4c5c(OC)cc(=O)c6c(NC7CCC(OC(=O)CCOCCOCCOCCOCCOCCOCCOC)C7)c(OC)c7c(c(c2C=C(C)C7C(C)=O)c34)c65)C1` (stereo not drawn) [HB-20b-PEG6] came in with a singlet oxygen yield in series [1] of 28%. In addition, in series [2], the maximum absorption wavelength came out at 624 nm and the molar extinction coefficient is on record as 31,000 M^−1cm^−1.
For `COCCOCCOCCOCCOCCOCCOCCOCCOCCOCCOCCOCCOCCC(=O)OC1CCC(Nc2c3c4c5c(c(OC)c(=O)c6c(O)cc(OC)c(c7c(OC)cc(NC8CCC(OC(=O)CCOCCOCCOCCOCCOCCOCCOCCOCCOCCOCCOCCOCCOC)C8)c(c2=O)c74)c65)C(C(C)=O)C(C)=C3)C1` (stereo not drawn) [HB-20c-PEG12], in that order: 34%, 632 nm and 32,500 M^−1cm^−1.
`COCCOCCOCCOCCOCCOCCOCCC(=O)OC1CCC(Nc2c3c4c5c(c(OC)c(=O)c6c(NC7CCC(OC(=O)CCOCCOCCOCCOCCOCCOCCOC)C7)cc(OC)c(c7c(OC)cc(O)c(c2=O)c74)c65)C(C(C)=O)C(C)=C3)C1` (stereo not drawn) [HB-20d-PEG6] yielded a singlet oxygen yield in series [1] of 32%. In series [2], the maximum absorption wavelength came out at 630 nm and the molar extinction coefficient is reported as 30,500 M^−1cm^−1.
For `COCCOCCOC(=O)C1CCCC1Nc1c(NC2CCCC2C(=O)OCCOCCOC)c2c(=O)cc(OC)c3c4c(OC)cc(=O)c5c(O)c(OC)c6c(c(c1C=C(C)C6C(C)=O)c23)c54` (stereo not drawn) [HB-21a-PEG1], in that order: 30%, 624 nm and 31,500 M^−1cm^−1.
Taken in the same sequence, the figures for `COc1c(O)c2c(=O)cc(OC)c3c4c(OC)cc(=O)c5c(NC6CCCC6C(=O)O)c(NC6CCCC6C(=O)O)c6c(c(c1C(C(C)=O)C(C)=C6)c23)c54` (stereo not drawn) [HB-21a] were 20%, 620 nm and 23,500 M^−1cm^−1.
In the case of `COc1c(O)c2c(=O)cc(OC)c3c4c(OC)cc(=O)c5c(NC(C(=O)O)C(C)C)c(NC(C(=O)O)C(C)C)c6c(c(c1C(C(C)=O)C(C)=C6)c23)c54` (stereo not drawn) [HB-22a], the singlet oxygen yield in series [1] is listed as 18%. For the same molecule, in series [2], the maximum absorption wavelength came to 621 nm and the molar extinction coefficient is 21,000 M^−1cm^−1.
In turn, `COc1c(NC(C(=O)O)C(C)C)c2c(=O)cc(OC)c3c4c(OC)cc(=O)c5c(O)c(NC(C(=O)O)C(C)C)c6c(c(c1C(C(C)=O)C(C)=C6)c23)c54` (stereo not drawn) [HB-22b] returned a singlet oxygen yield in series [1] of 19%. In addition, in series [2], the maximum absorption wavelength is 618 nm and the molar extinction coefficient is 21,000 M^−1cm^−1.
